Structures can show the parent of a compound that is named as a salt.
Target: Full-length PRMT5 enzyme (NCBI Reference sequence NP_006100.2) co-expressed with His6-MEP50 (Homo sapiens (Human), UniProt O14744)
Experiment: Revised PRMT5 Biochemical Assay
Conditions: 1 μM peptide substrate, 1 μM S-Adenosyl methionine, 4 hours at 37 degree Celsius, Transcreener EPIGEN fluorescence polarisation
Description: Compounds of the invention may be tested for in vitro activity in the following assay: A histone H4 derived peptide is used as substrate (amino acid sequence: […]N H2). Full-length PRMT5 enzyme (NCBI Reference sequence NP_006100.2) was co-expressed with His6-MEP50 in insect cells and purified via Nickel immobilized metal affinity and gel filtration chromatography (“the enzyme”).
The 6 μL reactions are run in Greiner brand black 384-well low volume assay plates. All reactions contained assay buffer (phosphate buffered saline, 0.01% (v/v) Tween-20, 0.01% (w/v) albumin from chicken egg white, 1 mM Dithiothreitol, 1 μM peptide substrate, 1 μM S-Adenosyl methionine, and 15 ng/reaction enzyme, with the enzyme being omitted from negative control reactions. Compounds were added in a volume of 100 nL from dilution series prepared in DMSO, positive and negative control reactions receiving the same volume DMSO without compound. The plates were sealed with adhesive seals and incubated for 4 hours at 37 degree Celsius. Reaction progress was measured using the Transcreener™ EPIGEN methyltransferase assay (BellBrook Labs, Madison, Wis.) as recommended by the manufacturer. To each reaction 2 μL detection mix were added, containing coupling enzymes, fluorescence polarisation tracer, and AMP antibody. Plates were incubated for 90 minutes before being read on a PerkinElmer EnVision™ plate reader in fluorescence polarisation mode. IC50 values were obtained from the raw readings by calculating percent inhibition (%1) for each reaction relative to controls on the same plate (% I=(I−CN)/(CP−CN) where CN/CP are the averages of the negative/positive reactions, respectively), then fitting the %1 data vs. compound concentration [I] to % I=(A+((B−A)/(1+((C/[I])^D)))) where A is the lower asymptote, B is the upper asymptote, C is the IC50 value, and D is the slope.

Chain of Full-length PRMT5 enzyme (NCBI Reference sequence NP_006100.2) co-expressed with His6-MEP50 (O14744 whole entry): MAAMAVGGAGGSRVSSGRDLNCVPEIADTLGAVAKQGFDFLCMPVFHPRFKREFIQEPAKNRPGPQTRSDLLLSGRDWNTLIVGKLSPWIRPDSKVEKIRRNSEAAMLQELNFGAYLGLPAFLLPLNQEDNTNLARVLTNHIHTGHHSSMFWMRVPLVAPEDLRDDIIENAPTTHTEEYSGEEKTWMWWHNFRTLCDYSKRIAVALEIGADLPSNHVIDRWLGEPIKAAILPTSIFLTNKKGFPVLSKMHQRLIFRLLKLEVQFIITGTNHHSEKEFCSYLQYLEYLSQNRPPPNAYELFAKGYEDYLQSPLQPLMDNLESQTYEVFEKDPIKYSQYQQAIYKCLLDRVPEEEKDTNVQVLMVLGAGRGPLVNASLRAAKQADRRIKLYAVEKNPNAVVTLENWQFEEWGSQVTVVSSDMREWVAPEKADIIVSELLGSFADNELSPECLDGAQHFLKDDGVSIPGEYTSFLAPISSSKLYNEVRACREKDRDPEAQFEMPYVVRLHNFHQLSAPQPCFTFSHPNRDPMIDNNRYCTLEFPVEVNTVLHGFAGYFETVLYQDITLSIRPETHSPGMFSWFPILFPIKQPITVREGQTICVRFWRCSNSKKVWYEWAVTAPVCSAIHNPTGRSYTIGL
Chain of Full-length PRMT5 enzyme (NCBI Reference sequence NP_006100.2) co-expressed with His6-MEP50 (Q9BQA1 whole entry partner): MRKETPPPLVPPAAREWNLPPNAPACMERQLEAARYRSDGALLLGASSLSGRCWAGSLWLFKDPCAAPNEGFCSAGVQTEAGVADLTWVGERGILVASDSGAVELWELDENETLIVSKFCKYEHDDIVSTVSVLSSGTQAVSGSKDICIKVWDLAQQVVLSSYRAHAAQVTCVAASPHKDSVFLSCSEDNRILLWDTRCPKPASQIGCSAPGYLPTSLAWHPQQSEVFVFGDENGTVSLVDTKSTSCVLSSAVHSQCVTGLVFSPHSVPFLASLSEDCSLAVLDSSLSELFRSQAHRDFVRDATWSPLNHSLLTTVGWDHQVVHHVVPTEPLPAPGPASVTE

IC50 [µM] | SMILES
1.7 | O=C(NC[C@@H](O)[C@@H]1Cc2ccccc2CN1)c1cccnc1 [Example 78, N-((R)-2-Hydroxy-2-((S)-1,2,3,4-tetrahydroisoquinolin-3-yl)ethyl)nicotinamide dihydrochloride]
3.82 | O=C(NC[C@@H](O)[C@@H]1Cc2ccccc2CN1)c1ccnc(C(F)(F)F)c1 [Example 86, N-((R)-2-Hydroxy-2-((S)-1,2,3,4-tetrahydroisoquinolin-3-yl)ethyl)-2-(trifluoromethyl)isonicotinamide dihydrochloride]
0.187 | CC(=O)N1CCC(c2nc3cc(C(=O)NC[C@@H](O)[C@@H]4Cc5ccccc5CN4)ccc3[nH]2)CC1 [Example 88, 2-(1-Acetylpiperidin-4-yl)-N-((R)-2-hydroxy-2-((S)-1,2,3,4-tetrahydroisoquinolin-3-yl)ethyl)-1H-benzo[d]imidazole-5-carboxamide]
0.203 | CCOc1cc(-c2nnc(C)o2)ccc1C(=O)NC[C@@H](O)[C@@H]1Cc2ccccc2CN1 [Example 89, 2-Ethoxy-N-((R)-2-hydroxy-2-((S)-1,2,3,4-tetrahydroisoquinolin-3-yl)ethyl)-4-(5-methyl-1,3,4-oxadiazol-2-yl)benzamide]
0.947 | O=C(NC[C@@H](O)[C@@H]1Cc2ccccc2CN1)c1ccc(C(=O)N2CCCC2)cc1 [Example 90, N-((R)-2-Hydroxy-2-((S)-1,2,3,4-tetrahydroisoquinolin-3-yl)ethyl)-4-(pyrrolidine-1-carbonyl)benzamide]
0.31 | COC1CCN(C(=O)c2ccc(C(=O)NC[C@@H](O)[C@@H]3Cc4ccccc4CN3)cc2)CC1 [Example 92, N-((R)-2-Hydroxy-2-((S)-1,2,3,4-tetrahydroisoquinolin-3-yl)ethyl)-4-(4-methoxypiperidine-1-carbonyl)benzamide]
0.759 | O=C(NC[C@@H](O)[C@@H]1Cc2ccccc2CN1)c1ccc(C(=O)N2CCCCO2)cc1 [Example 93, N-((R)-2-Hydroxy-2-((S)-1,2,3,4-tetrahydroisoquinolin-3-yl)ethyl)-4-(1,2-oxazinane-2-carbonyl)benzamide]
9.71 | O=C(NC[C@@H](O)[C@@H]1Cc2ccccc2CN1)c1ccc(C(=O)NC2CCS(=O)(=O)CC2)cc1 [Example 95, N^1-(1,1-Dioxidotetrahydro-2H-thiopyran-4-yl)-N^4-((R)-2-hydroxy-2-((S)-1,2,3,4-tetrahydroisoquinolin-3-yl)ethyl)terephthalamide]
1.38 | O=C(NC[C@@H](O)[C@@H]1Cc2ccccc2CN1)c1ccc(C(=O)N2Cc3cccnc3C2)cc1 [Example 96, 4-(6,7-Dihydro-5H-pyrrolo[3,4-b]pyridine-6-carbonyl)-N-((R)-2-hydroxy-2-((S)-1,2,3,4-tetrahydroisoquinolin-3-yl)ethyl)benzamide]
18.7 | CC(C)NC(=O)c1ccc(C(=O)NC[C@@H](O)[C@@H]2Cc3ccccc3CN2)cc1 [Example 97, N^1-((R)-2-Hydroxy-2-((S)-1,2,3,4-tetrahydroisoquinolin-3-yl)ethyl)-N^4-isopropylterephthalamide]
0.23 | O=C(NC[C@@H](O)[C@@H]1Cc2ccccc2CN1)c1ccc(Cl)nc1 [Example 98, 6-Chloro-N—((R)-2-hydroxy-2-((S)-1,2,3,4-tetrahydroisoquinolin-3-yl)ethyl)nicotinamide hydrochloride]
0.127 | O=C(NC[C@@H](O)[C@@H]1Cc2ccccc2CN1)c1ccc(OC2CCNCC2)nc1 [Example 99, N—((R)-2-Hydroxy-2-((S)-1,2,3,4-tetrahydroisoquinolin-3-yl)ethyl)-6-(piperidin-4-yloxy)nicotinamide trihydrochloride]
0.546 | O=C(NC[C@@H](O)[C@@H]1Cc2ccccc2CN1)c1cc(NC2COC2)ncn1 [Example 107, N—((R)-2-Hydroxy-2-((S)-1,2,3,4-tetrahydroisoquinolin-3-yl)ethyl)-6-(oxetan-3-ylamino)pyrimidine-4-carboxamide]
0.688 | CC(NC(=O)c1ccc(C(=O)N2CCOCC2)cc1)[C@@H](O)[C@@H]1Cc2ccccc2CN1 (stereo partly drawn) [Example 109, N-((1R)-1-Hydroxy-1-((S)-1,2,3,4-tetrahydroisoquinolin-3-yl)propan-2-yl)-4-(morpholine-4-carbonyl)benzamide hydrochloride]
1.49 | CC(NC(=O)c1ccc(C(=O)N2CCOCC2)cc1)[C@H](O)[C@@H]1Cc2ccccc2CN1 (stereo partly drawn) [Example 110, N-((1S)-1-Hydroxy-1-((S)-1,2,3,4-tetrahydroisoquinolin-3-yl)propan-2-yl)-4-(morpholine-4-carbonyl)benzamide hydrochloride]
4.67 | Nc1ccc(C(=O)NC[C@@H](O)[C@@H]2Cc3ccccc3CN2)cn1 [Example 111, 6-Amino-N-((R)-2-hydroxy-2-((S)-1,2,3,4-tetrahydroisoquinolin-3-yl)ethyl)nicotinamide dihydrochloride]
2.31 | O=C(NC[C@@H](O)[C@@H]1Cc2ccccc2CN1)c1ccc2[nH]ncc2c1 [Example 112, N-((R)-2-Hydroxy-2-((S)-1,2,3,4-tetrahydroisoquinolin-3-yl)ethyl)-1H-indazole-5-carboxamide dihydrochloride]
5.49 | O=C(NC[C@@H](O)[C@@H]1Cc2ccccc2CN1)c1ccc2[nH]nnc2c1 [Example 114, N-((R)-2-Hydroxy-2-((S)-1,2,3,4-tetrahydroisoquinolin-3-yl)ethyl)-1H-benzo[d][1,2,3]triazole-5-carboxamide dihydrochloride]
2.83 | O=C(NC[C@@H](O)[C@@H]1Cc2ccccc2CN1)c1cc(Cl)nc(OC2COC2)c1 [Example 115, 2-Chloro-N-((R)-2-hydroxy-2-((S)-1,2,3,4-tetrahydroisoquinolin-3-yl)ethyl)-6-(oxetan-3-yloxy)isonicotinamide dihydrochloride]
1.11 | CC(=O)N1CCC(Oc2cc(C(=O)NC[C@@H](O)[C@@H]3Cc4ccccc4CN3)cnn2)CC1 [Example 116, 6-((1-Acetylpiperidin-4-yl)oxy)-N-((R)-2-hydroxy-2-((S)-1,2,3,4-tetrahydroisoquinolin-3-yl)ethyl)pyridazine-4-carboxamide dihydrochloride]
0.487 | O=C(NC[C@@H](O)[C@@H]1Cc2ccccc2CN1)c1cccc2c1ncn2C1CCOCC1 [Example 117, N-((R)-2-Hydroxy-2-((S)-1,2,3,4-tetrahydroisoquinolin-3-yl)ethyl)-1-(tetrahydro-2H-pyran-4-yl)-1H-benzo[d]imidazole-4-carboxamide dihydrochloride]
0.502 | COC(=O)N1CCC(Oc2cncc(C(=O)NC[C@@H](O)[C@@H]3Cc4ccccc4CN3)c2)CC1 [Example 118, Methyl 4-((5-(((R)-2-hydroxy-2-((S)-1,2,3,4-tetrahydroisoquinolin-3-yl)ethyl)carbamoyl)pyridin-3-yl)oxy)piperidine-1-carboxylate dihydrochloride]
0.07 | O=C(NC[C@@H](O)[C@@H]1Cc2ccccc2CN1)c1ccnc(OC2CCN(CC(F)(F)F)CC2)c1 [Example 124, N—((R)-2-Hydroxy-2-((S)-1,2,3,4-tetrahydroisoquinolin-3-yl)ethyl)-2-((1-(2,2,2-trifluoroethyl)piperidin-4-yl)oxy)isonicotinamide]

SMILES | IC50 [µM]
O=C(NC[C@@H](O)[C@@H]1Cc2ccccc2CN1)c1ccc(C(=O)N2C3CCC2COC3)c(C(F)F)c1 [Example 85, 4-(3-Oxa-8-azabicyclo[3.2.1]octane-8-carbonyl)-3-(difluoromethyl)-N-((R)-2-hydroxy-2-((S)-1,2,3,4-tetrahydroisoquinolin-3-yl)ethyl)benzamide] | 0.279
COc1cc(C(=O)N2C3CCC2COC3)ccc1C(=O)NC[C@@H](O)[C@@H]1Cc2ccccc2CN1 [Example 87, 4-(3-Oxa-8-azabicyclo[3.2.1]octane-8-carbonyl)-N-((R)-2-hydroxy-2-((S)-1,2,3,4-tetrahydroisoquinolin-3-yl)ethyl)-2-methoxybenzamide hydrochloride] | 0.057
O=C(NC[C@@H](O)[C@@H]1Cc2ccccc2CN1)c1ccc(C(=O)N2C3CCC2CC3)cc1 [Example 91, 4-(7-Azabicyclo[2.2.1]heptane-7-carbonyl)-N-((R)-2-hydroxy-2-((S)-1,2,3,4-tetrahydroisoquinolin-3-yl)ethyl)benzamide] | 0.123
CCOc1cc(C(=O)N2C3CCC2COC3)ccc1C(=O)NC[C@@H](O)[C@@H]1Cc2cc(C)ccc2CN1 [Example 125, 4-(3-Oxa-8-azabicyclo[3.2.1]octane-8-carbonyl)-2-ethoxy-N—((R)-2-hydroxy-2-((S)-6-methyl-1,2,3,4-tetrahydroisoquinolin-3-yl)ethyl)benzamide hydrochloride] | 0.232

— patent US10494376B2, “Tetrahydroisoquinoline derived PRMT5-inhibitors” (CTXT PTY LTD, priority 2014, dated 2019)
